Results from patent US10259772B2, “Agents for maintaining undifferentiated state and promoting proliferation of stem cells” (NIPPON MENARD COSMETIC CO., LTD., priority 2014, dated 2019).

Experiments:
Assay type in all cases: cell-based
[1] = tested on: murine embryonic stem cells (murine ES cells); assay: Evaluation of undifferentiated state-maintaining effect on stem cells (Nanog gene expression, real-time PCR); conditions: final concentration 0.001%, 3 days of culture, Nanog/Gapdh relative expression at onset of culture defined as 100% undifferentiation, no addition control 25
Text: Using a medium prepared by adding fetal bovine serum (FBS, 15%, manufactured by Sigma-Aldrich Co. LLC), a nucleoside solution (100 times dilution, manufactured by Sumitomo Dainippon Pharma Co., Ltd.), a non-essential amino acids solution (100 times dilution, manufactured by Sumitomo Dainippon Pharma Co., Ltd.), a β2-mercaptoethanol solution (100 times dilution, manufactured by Sumitomo Dainippon Pharma Co., Ltd.), an L-glutamine solution (100 times dilution, manufactured by Sumitomo Dainippon Pharma Co., Ltd.), penicillin (100 units/mL, manufactured by Sigma-Aldrich Co. LLC), and streptomycin (100 μg/mL, manufactured by Sigma-Aldrich Co. LLC) to Dulbecco's Modified Eagle Medium (manufactured by Gibco), 5×10^5 cells of murine embryonic stem cells (murine ES cells: manufactured by COSMO BIO Co., Ltd.) were seeded in a 6 cm dish coated with gelatin (manufactured by Sigma-Aldrich Co. LLC), one or a mixture of fatty acid glycerides 1 to 9 was added to the medium at a final concentration of 0.001%, and culture was continued for 3 days.
After 3 days of culture, cells were collected and washed twice with PBS(−) and RNA was extracted from the cells with Trizol Reagent (Invitrogen). Extracted RNA was reverse-transcripted to cDNA using 2-STEP real-time PCR kit (Applied Biosystems) and then real-time PCR (95° C.: 15 seconds, 60° C.: 30 seconds, 40 cycles) was performed by AB17300 (Applied Biosystems) using the following primer sets to confirm the gene expression of Nanog (undifferentiation marker: Cell Res. 2007 January; 17 (1): 42-9. Review. Nanog and transcriptional networks in embryonic stem cell pluripotency. Pan G, Thomson J A.). Other operations were conducted according to a determined procedure.
The undifferentiated state-maintaining effect was evaluated as follows: the value of the relative gene expression level of Nanog (Nanog gene expression level/Gapdh gene expression level) calculated as the ratio of the Nanog mRNA expression level to the Gapdh mRNA expression level, which is an internal standard, in murine ES cells at the onset of culture was defined as 100% undifferentiation; and relative thereto, the value of the relative gene expression level of Nanog in the ES cells after 3 days of culture was calculated and evaluated.

human somatic stem cells [2] = assay: Evaluation of proliferation-promoting effect on stem cells (cell count); conditions: 72 h, final concentration 0.001%, 3 days of culture, number of cells in no addition group (control) defined as 100%, read-out: Percent cell proliferation (%)
Procedure: 3×10^5 cells of human somatic stem cells (manufactured by DS Pharma Biomedical Co., Ltd.) cultured using a human stem cell culture medium (manufactured by Toyobo Co., Ltd.) were seeded in a 6 cm dish, one or a mixture (fatty acid glycerides 2+3, fatty acid glycerides 4+5) of fatty acid glycerides 1 to 9 was added at a final concentration of 0.001%, and culture was continued for 3 days. When a mixture of two fatty acid glycerides was used, the ratio thereof was 1:1 (weight ratio).
After 3 days of culture, cells were washed three times with PBS(−), then collected with a rubber policeman, and cells were counted for each culture.
The total number of cells without addition of fatty acid glycerides was defined as control and the control was defined as 100(%). Increase or decrease (%) of the number of cells with addition of fatty acid glycerides was calculated and the stem cell proliferation-promoting effect was evaluated.

human somatic stem cells [3] = assay: In vitro wound healing test (scratch assay); conditions: final concentration 0.001%, 100 × area of scratch region at 48 hours / area at 0 hours, no addition control 61
Procedure: The scratch assay (JP Publication (Kokai) No. 2013-18756), which is generally conducted as a method for evaluating the efficacy to promote wound healing, was conducted. Specifically, 5×10^5 cells of human somatic stem cells were seeded in a 3.5 cm dish, cultured using human stem cell culture medium to confluency, and then the bottom of the dish was scratched with the end of a sterilized tip to generate a gap in the cell sheet. Subsequently, the medium was changed to a medium supplemented with one or a mixture (fatty acid glycerides 2+3, fatty acid glycerides 4+5) of fatty acid glycerides 1 to 9 at a final concentration of 0.001% and the percent recovery of the cell gap was evaluated 48 hours later. To obtain the same area under a phase contrast microscope when obtaining images before and after the recovery, a mark that can be used as a reference point is provided near the scratch.
The scratch region 48 hours later was calculated as [scratch region 48 hours later]=100× [area of scratch region at 48 hours]/[area of scratch region at 0 hours] using a commercially available image analysis software. These test results are illustrated in Table 4 below.

| SMILES | Nanog expression level (%) after 3 days of culturing [1] | activity at 0.001 % (human somatic stem cells [2]) | Scratch region 48 hours later (%) (human somatic stem cells [3]) |
| --- | --- | --- | --- |
| CCCCCC=CCC=CCCCCCCCC(=O)OCC(O)CO (stereo not drawn) [Fatty acid glyceride 1, 1-Monolinolein] | 33% | 115% | 54% |
| CCCCCC=CCC=CCCCCCCCC(=O)OCC(O)COC(=O)CCCCCCCCCCCCCCC (stereo not drawn) [Fatty acid glyceride 2, 1-Palmitin-3-linolein] | 71% | 160% | 30% |
| CCCCCC=CCC=CCCCCCCCC(=O)OCC(O)COC(=O)CCCCCCCC=CCC=CCCCCC (stereo not drawn) [Fatty acid glyceride 3, 1,3-Dilinolein] | 65% | 158% | 32% |
| CCCCCC=CCC=CCCCCCCCC(=O)OCC(O)COC(=O)CCCCCCCC=CCCCCCCCC (stereo not drawn) [Fatty acid glyceride 4, 1-Olein-3-linolein] | 59% | 148% | 38% |
| CCCCCC=CCC=CCCCCCCCC(=O)OCC(O)COC(=O)CCCCCCCCCCCCCCCCC (stereo not drawn) [Fatty acid glyceride 5, 1-Stearin-3-linolein] | 57% | 145% | 40% |
| CCCCCCCCC=CCCCCCCCC(=O)OCC(O)COC(=O)CCCCCCCC=CCCCCCCCC (stereo not drawn) [Fatty acid glyceride 6, 1,3-Diolein] | 43% | 130% | 44% |
| CCCCCC=CCC=CCCCCCCCC(=O)OC(CO)COC(=O)CCCCCCCCCCCCCCC (stereo not drawn) [Fatty acid glyceride 7, 1-Palmitin-2-linolein] | 41% | 129% | 45% |
| CCCCCCCC/C=C\CCCCCCCC(=O)OCC(COC(=O)CCCCCCC/C=C\CCCCCCCC)OC(=O)CCCCCCC/C=C\CCCCCCCC [Fatty acid glyceride 8, Triolein] | 35% | 118% | 52% |
| CCCCCC=CCC=CCCCCCCCC(=O)OCC(COC(=O)CCCCCCCC=CCC=CCCCCC)OC(=O)CCCCCCCC=CCC=CCCCCC (stereo not drawn) [Fatty acid glyceride 9, Trilinolein] | 34% | 117% | 53% |
| CCCCCCCCCCCCCCCC(=O)O [Palmitic acid, reference compound] | 27% | 102% | 60% |
| CCCCCCCCCCCCCCCC(=O)OCC(COC(=O)CCCCCCCCCCCCCCC)OC(=O)CCCCCCCCCCCCCCC [Tripalmitin, reference compound] | 26% | 103% | 59% |
